Test results published in ChEMBL document CHEMBL4507294, “Data for DCP probe MSD-CYP11B2” (2021).

Tests used:
[1] = target: Calcium/calmodulin-dependent protein kinase type II subunit gamma (Homo sapiens) (UniProt Q13555); conditions: Compound concentration 1000.0 nM
[2] = target: Serine/threonine-protein kinase ULK2 (Homo sapiens) (UniProt Q8IYT8); conditions: Compound concentration 1000.0 nM
[3] = target: Tyrosine-protein kinase CSK (Homo sapiens) (UniProt P41240); conditions: Compound concentration 1000.0 nM
[4] = target: Mitogen-activated protein kinase kinase kinase 14 (Homo sapiens) (UniProt Q99558); conditions: Compound concentration 1000.0 nM
[5] = target: Cyclin-dependent kinase-like 5 (Homo sapiens) (UniProt O76039); conditions: Compound concentration 1000.0 nM
[6] = target: Serine/threonine-protein kinase/endoribonuclease IRE1 (Homo sapiens) (UniProt O75460); conditions: Compound concentration 1000.0 nM
[7] = target: Non-receptor tyrosine-protein kinase TYK2 (Homo sapiens) (UniProt P29597); conditions: Compound concentration 1000.0 nM
[8] = target: Phosphatidylinositol 5-phosphate 4-kinase type-2 beta (Homo sapiens) (UniProt P78356); conditions: Compound concentration 1000.0 nM
[9] = target: Homeodomain-interacting protein kinase 2 (Homo sapiens) (UniProt Q9H2X6); conditions: Compound concentration 1000.0 nM
[10] = target: Mitogen-activated protein kinase 3 (Homo sapiens) (UniProt P27361); conditions: Compound concentration 1000.0 nM
[11] = target: Serine/threonine-protein kinase PLK3 (Homo sapiens) (UniProt Q9H4B4); conditions: Compound concentration 1000.0 nM
[12] = target: 5'-AMP-activated protein kinase catalytic subunit alpha-2 (Homo sapiens) (UniProt P54646); conditions: Compound concentration 1000.0 nM
[13] = target: Serine/threonine-protein kinase TBK1 (Homo sapiens) (UniProt Q9UHD2); conditions: Compound concentration 1000.0 nM
[14] = target: cGMP-dependent protein kinase 1 (Homo sapiens) (UniProt Q13976); conditions: Compound concentration 1000.0 nM
[15] = target: Tyrosine-protein kinase receptor Tie-1 (Homo sapiens) (UniProt P35590); conditions: Compound concentration 1000.0 nM
[16] = target: Mitogen-activated protein kinase kinase kinase 9 (Homo sapiens) (UniProt P80192); conditions: Compound concentration 1000.0 nM
[17] = test system: Proto-oncogene tyrosine-protein kinase receptor Ret (Homo sapiens), P07949 [V804L]; conditions: Compound concentration 1000.0 nM
[18] = target: Phosphatidylinositol 4-phosphate 5-kinase type-1 gamma (Homo sapiens) (UniProt O60331); conditions: Compound concentration 1000.0 nM
[19] = target: Inhibitor of nuclear factor kappa-B kinase subunit beta (Homo sapiens) (UniProt O14920); conditions: Compound concentration 1000.0 nM
[20] = target: Mu-type opioid receptor (Homo sapiens) (UniProt P35372); conditions: Compound concentration 10.0 uM
[21] = target: Dual specificity mitogen-activated protein kinase kinase 4 (Homo sapiens) (UniProt P45985); conditions: Compound concentration 1000.0 nM
[22] = target: D(1A) dopamine receptor (Homo sapiens) (UniProt P21728); conditions: Compound concentration 10.0 uM
[23] = target: Casein kinase II subunit alpha' (Homo sapiens) (UniProt P19784); conditions: Compound concentration 1000.0 nM
[24] = test system: Fibroblast growth factor receptor 3 (Homo sapiens), P22607 [G697C]; conditions: Compound concentration 1000.0 nM
[25] = target: Ankyrin repeat and protein kinase domain-containing protein 1 (Homo sapiens) (UniProt Q8NFD2); conditions: Compound concentration 1000.0 nM
[26] = test system: Receptor-type tyrosine-protein kinase FLT3 (Homo sapiens), P36888 [D835V]; conditions: Compound concentration 1000.0 nM
[27] = target: Serine/threonine-protein kinase DCLK3 (Homo sapiens) (UniProt Q9C098); conditions: Compound concentration 1000.0 nM
[28] = target: Serine/threonine-protein kinase STK11 (Homo sapiens) (UniProt Q15831); conditions: Compound concentration 1000.0 nM
[29] = target: Tyrosine-protein kinase HCK (Homo sapiens) (UniProt P08631); conditions: Compound concentration 1000.0 nM
[30] = target: Serine/threonine-protein kinase 17B (Homo sapiens) (UniProt O94768); conditions: Compound concentration 1000.0 nM
[31] = target: Atypical kinase COQ8A, mitochondrial (Homo sapiens) (UniProt Q8NI60); conditions: Compound concentration 1000.0 nM
[32] = target: Serine/threonine-protein kinase NLK (Homo sapiens) (UniProt Q9UBE8); conditions: Compound concentration 1000.0 nM
[33] = target: Phosphatidylinositol 4,5-bisphosphate 3-kinase catalytic subunit beta isoform (Homo sapiens) (UniProt P42338); conditions: Compound concentration 1000.0 nM
[34] = target: Serine/threonine-protein kinase Nek11 (Homo sapiens) (UniProt Q8NG66); conditions: Compound concentration 1000.0 nM
[35] = target: Fibroblast growth factor receptor 4 (Homo sapiens) (UniProt P22455); conditions: Compound concentration 1000.0 nM
[36] = target: cAMP-dependent protein kinase catalytic subunit alpha (Homo sapiens) (UniProt P17612); conditions: Compound concentration 1000.0 nM
[37] = target: Tyrosine-protein kinase ABL2 (Homo sapiens) (UniProt P42684); conditions: Compound concentration 1000.0 nM
[38] = target: Tyrosine-protein kinase JAK3 (Homo sapiens) (UniProt P52333); conditions: Compound concentration 1000.0 nM
[39] = target: RAC-gamma serine/threonine-protein kinase (Homo sapiens) (UniProt Q9Y243); conditions: Compound concentration 1000.0 nM
[40] = target: Casein kinase II subunit alpha (Homo sapiens) (UniProt P68400); conditions: Compound concentration 1000.0 nM
[41] = target: Serine/threonine-protein kinase pim-2 (Homo sapiens) (UniProt Q9P1W9); conditions: Compound concentration 1000.0 nM
[42] = target: Dual specificity mitogen-activated protein kinase kinase 2 (Homo sapiens) (UniProt P36507); conditions: Compound concentration 1000.0 nM
[43] = target: Cyclin-dependent kinase 3 (Homo sapiens) (UniProt Q00526); conditions: Compound concentration 1000.0 nM
[44] = target: Aurora kinase A (Homo sapiens) (UniProt O14965); conditions: Compound concentration 1000.0 nM

Sequence of Fibroblast growth factor receptor 3 (Homo sapiens), P22607 [G697C] (P22607 whole entry G697C, the tested form may be a part): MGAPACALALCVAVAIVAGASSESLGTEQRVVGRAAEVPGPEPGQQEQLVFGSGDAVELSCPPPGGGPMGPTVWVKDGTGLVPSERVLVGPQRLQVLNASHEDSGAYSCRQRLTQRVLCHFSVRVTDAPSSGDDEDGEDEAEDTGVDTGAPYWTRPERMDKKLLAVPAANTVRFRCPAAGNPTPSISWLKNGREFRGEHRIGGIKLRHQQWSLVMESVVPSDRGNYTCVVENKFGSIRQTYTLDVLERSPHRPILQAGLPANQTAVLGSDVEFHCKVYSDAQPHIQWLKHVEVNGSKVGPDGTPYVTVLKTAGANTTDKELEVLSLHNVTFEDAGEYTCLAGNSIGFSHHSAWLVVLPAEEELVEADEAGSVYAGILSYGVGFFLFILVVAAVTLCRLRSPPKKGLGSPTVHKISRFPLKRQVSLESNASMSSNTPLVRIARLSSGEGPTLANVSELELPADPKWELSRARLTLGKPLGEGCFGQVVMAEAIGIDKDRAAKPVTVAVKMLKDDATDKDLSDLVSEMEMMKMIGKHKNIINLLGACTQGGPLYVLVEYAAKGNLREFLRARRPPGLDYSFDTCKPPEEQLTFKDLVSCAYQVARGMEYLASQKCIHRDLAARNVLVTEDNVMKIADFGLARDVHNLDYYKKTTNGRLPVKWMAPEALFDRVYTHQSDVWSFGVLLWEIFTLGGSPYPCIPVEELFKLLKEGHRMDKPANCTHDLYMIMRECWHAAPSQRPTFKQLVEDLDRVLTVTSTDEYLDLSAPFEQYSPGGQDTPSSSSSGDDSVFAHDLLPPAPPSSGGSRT
Sequence of Serine/threonine-protein kinase DCLK3 (Homo sapiens) (Q9C098 whole entry): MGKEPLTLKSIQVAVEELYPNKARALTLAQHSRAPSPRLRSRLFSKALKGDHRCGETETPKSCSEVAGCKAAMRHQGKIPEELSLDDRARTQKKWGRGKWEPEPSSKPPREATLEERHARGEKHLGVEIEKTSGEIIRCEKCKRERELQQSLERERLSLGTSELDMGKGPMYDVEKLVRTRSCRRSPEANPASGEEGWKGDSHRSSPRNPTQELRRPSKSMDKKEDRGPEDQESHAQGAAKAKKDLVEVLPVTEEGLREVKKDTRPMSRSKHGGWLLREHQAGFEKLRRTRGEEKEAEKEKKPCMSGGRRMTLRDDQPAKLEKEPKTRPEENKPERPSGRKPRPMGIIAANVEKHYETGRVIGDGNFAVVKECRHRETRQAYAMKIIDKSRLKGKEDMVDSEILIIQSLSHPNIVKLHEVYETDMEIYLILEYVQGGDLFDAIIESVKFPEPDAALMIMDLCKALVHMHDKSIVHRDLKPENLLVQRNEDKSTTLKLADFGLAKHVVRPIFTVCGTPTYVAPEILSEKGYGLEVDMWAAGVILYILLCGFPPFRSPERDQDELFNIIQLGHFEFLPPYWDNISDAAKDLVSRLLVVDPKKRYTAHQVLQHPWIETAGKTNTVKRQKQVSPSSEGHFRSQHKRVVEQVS
Sequence of Mitogen-activated protein kinase 3 (Homo sapiens) (P27361 whole entry): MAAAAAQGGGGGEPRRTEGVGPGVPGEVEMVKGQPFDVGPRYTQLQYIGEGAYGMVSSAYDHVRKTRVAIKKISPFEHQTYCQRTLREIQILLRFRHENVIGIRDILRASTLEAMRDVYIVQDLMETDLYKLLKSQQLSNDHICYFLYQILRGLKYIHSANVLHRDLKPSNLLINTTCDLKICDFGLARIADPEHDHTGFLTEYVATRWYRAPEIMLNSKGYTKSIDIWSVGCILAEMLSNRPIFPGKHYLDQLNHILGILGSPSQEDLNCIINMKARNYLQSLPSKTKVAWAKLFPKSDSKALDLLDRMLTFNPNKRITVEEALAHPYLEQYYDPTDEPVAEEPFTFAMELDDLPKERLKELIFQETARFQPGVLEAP
Sequence of Serine/threonine-protein kinase STK11 (Homo sapiens) (Q15831 whole entry): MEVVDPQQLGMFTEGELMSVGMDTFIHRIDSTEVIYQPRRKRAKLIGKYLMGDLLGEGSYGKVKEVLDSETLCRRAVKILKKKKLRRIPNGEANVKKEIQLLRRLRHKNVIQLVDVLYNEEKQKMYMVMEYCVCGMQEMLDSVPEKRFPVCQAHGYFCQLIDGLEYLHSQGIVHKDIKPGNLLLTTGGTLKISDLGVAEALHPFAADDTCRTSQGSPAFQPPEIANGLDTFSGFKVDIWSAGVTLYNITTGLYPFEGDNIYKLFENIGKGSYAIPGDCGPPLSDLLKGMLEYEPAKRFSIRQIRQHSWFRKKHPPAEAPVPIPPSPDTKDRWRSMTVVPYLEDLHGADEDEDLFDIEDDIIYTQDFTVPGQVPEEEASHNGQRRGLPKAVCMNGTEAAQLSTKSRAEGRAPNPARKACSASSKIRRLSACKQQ
Sequence of Homeodomain-interacting protein kinase 2 (Homo sapiens) (Q9H2X6 whole entry, looked up): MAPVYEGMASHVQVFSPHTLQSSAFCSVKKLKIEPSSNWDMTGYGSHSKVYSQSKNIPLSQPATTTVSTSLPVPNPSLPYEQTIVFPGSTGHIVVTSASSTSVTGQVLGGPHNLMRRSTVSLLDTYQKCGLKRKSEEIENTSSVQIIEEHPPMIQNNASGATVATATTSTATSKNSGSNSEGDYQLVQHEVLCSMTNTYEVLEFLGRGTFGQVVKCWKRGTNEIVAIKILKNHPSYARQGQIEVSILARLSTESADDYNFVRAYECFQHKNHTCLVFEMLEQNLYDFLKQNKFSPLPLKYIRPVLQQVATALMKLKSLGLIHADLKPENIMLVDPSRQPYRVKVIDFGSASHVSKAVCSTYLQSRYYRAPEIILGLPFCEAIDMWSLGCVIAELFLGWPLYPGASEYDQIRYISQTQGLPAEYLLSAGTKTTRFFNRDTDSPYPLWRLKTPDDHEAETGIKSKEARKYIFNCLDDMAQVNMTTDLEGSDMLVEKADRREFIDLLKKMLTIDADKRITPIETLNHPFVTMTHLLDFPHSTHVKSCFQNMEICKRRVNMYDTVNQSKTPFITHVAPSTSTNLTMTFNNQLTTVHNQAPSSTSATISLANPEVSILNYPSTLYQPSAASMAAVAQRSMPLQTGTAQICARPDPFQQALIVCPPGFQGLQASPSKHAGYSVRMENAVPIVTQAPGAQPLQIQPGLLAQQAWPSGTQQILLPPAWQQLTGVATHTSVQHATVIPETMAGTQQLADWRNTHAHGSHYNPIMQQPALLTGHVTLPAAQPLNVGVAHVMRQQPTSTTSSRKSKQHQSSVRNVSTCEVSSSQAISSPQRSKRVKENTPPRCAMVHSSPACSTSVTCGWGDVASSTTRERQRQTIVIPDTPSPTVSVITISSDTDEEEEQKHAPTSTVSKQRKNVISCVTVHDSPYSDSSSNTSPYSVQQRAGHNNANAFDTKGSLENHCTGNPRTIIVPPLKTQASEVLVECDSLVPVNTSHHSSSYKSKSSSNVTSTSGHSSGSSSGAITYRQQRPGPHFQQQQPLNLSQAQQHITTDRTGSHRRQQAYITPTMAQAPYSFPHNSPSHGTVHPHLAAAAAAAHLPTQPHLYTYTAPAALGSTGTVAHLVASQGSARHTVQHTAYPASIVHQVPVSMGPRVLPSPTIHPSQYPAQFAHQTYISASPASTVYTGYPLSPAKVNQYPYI
Sequence of Casein kinase II subunit alpha' (Homo sapiens) (P19784 whole entry, looked up): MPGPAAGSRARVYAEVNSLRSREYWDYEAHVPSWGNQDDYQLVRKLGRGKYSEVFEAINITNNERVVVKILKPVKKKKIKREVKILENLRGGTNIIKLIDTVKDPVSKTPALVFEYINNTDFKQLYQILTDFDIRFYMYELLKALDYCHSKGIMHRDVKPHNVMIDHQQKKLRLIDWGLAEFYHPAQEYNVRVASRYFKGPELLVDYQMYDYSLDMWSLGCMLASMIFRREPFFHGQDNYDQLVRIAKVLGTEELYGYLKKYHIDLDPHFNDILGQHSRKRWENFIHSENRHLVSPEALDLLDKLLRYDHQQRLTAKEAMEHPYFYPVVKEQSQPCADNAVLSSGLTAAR
Sequence of Mitogen-activated protein kinase kinase kinase 14 (Homo sapiens) (Q99558 whole entry, looked up): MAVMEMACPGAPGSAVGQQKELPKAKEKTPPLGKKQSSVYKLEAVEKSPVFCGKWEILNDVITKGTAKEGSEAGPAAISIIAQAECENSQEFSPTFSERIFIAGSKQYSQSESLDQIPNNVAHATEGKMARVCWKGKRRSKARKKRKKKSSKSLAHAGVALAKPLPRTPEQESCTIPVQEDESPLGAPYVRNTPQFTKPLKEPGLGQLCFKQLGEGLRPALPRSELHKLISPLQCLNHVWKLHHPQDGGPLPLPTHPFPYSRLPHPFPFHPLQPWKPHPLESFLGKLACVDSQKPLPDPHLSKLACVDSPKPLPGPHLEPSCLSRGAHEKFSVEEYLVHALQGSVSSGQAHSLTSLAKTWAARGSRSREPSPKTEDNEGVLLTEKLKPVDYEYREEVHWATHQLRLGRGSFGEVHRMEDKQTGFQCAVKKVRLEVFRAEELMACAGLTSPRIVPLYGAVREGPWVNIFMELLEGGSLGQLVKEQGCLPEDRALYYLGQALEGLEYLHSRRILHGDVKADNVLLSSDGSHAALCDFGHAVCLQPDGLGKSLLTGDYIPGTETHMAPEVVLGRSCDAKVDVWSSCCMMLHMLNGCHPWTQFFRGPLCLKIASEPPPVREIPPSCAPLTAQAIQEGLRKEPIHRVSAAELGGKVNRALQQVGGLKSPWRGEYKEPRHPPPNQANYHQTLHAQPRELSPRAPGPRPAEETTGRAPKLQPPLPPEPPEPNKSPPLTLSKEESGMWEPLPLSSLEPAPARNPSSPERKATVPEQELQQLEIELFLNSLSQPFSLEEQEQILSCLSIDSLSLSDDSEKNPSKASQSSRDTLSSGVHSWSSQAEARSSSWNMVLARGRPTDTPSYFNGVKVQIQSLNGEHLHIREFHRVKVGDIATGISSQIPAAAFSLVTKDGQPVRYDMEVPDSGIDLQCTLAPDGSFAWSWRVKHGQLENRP

CC(C)(O)c1cncc(-c2nc3ccc(F)cc3n2C2CC2)c1 [MSD-CYP11B2]
inactive: residual activity [1] 100% | residual activity [2] 100% | residual activity [3] 100% | residual activity [4] 100% | residual activity [5] 100% | residual activity [6] 100% | residual activity [7] 94% | residual activity [8] 99% | residual activity [9] 100% | residual activity [10] 100% | residual activity [11] 100% | residual activity [12] 100% | residual activity [13] 72% | residual activity [14] 78% | residual activity [15] 100% | residual activity [16] 100% | residual activity [17] 100% | residual activity [18] 100% | residual activity [19] 100% | inhibition [20] 0.18% | residual activity [21] 100% | inhibition [22] 0.87% | residual activity [23] 100% | residual activity [24] 100% | residual activity [25] 100% | residual activity [26] 96% | residual activity [27] 100% | residual activity [28] 98% | residual activity [29] 100% | residual activity [30] 77% | residual activity [31] 100% | residual activity [32] 100% | residual activity [33] 81% | residual activity [34] 100% | residual activity [35] 100% | residual activity [36] 100% | residual activity [37] 100% | residual activity [38] 100% | residual activity [39] 100% | residual activity [40] 100% | residual activity [41] 100% | residual activity [42] 100% | residual activity [43] 100% | residual activity [44] 94%

FC(F)(F)c1ccc2c(c1)nc(-c1cccnc1)n2C1CC1 [MSD-CYP11B2-Negative-control]
inactive: residual activity [1] 100% | residual activity [2] 100% | residual activity [3] 100% | residual activity [4] 100% | residual activity [5] 91% | residual activity [6] 100% | residual activity [7] 100% | residual activity [8] 82% | residual activity [9] 100% | residual activity [10] 100% | residual activity [11] 100% | residual activity [12] 100% | residual activity [13] 82% | residual activity [14] 87% | residual activity [15] 100% | residual activity [16] 100% | residual activity [17] 81% | residual activity [18] 85% | residual activity [19] 100% | inhibition [20] -2.5% | residual activity [21] 100% | inhibition [22] -3.97% | residual activity [23] 100% | residual activity [24] 100% | residual activity [25] 100% | residual activity [26] 92% | residual activity [27] 100% | residual activity [28] 100% | residual activity [29] 100% | residual activity [30] 100% | residual activity [31] 100% | residual activity [32] 100% | residual activity [33] 97% | residual activity [34] 100% | residual activity [35] 100% | residual activity [36] 100% | residual activity [37] 100% | residual activity [38] 100% | residual activity [39] 100% | residual activity [40] 100% | residual activity [41] 100% | residual activity [42] 100% | residual activity [43] 100% | residual activity [44] 98%
